Literature values as cited in paper PMC10694761 (Cell Reports Medicine, 2023).

Key:
[1] = rats
[2] = humans
[3] = micromolar concentrations

In the case of Liraglutide, the “half-life of absorption from the s.c. space (t1/2, s.c.)” value [1] is listed as about 9.6 min, the “half-life of elimination from the systemic circulation (t1/2, serum)” value [1] is listed as about 4.01 h and the “t1/2, serum” value [2] is listed as about 13 h. The self-association state [3] was “heptameric structures”.
